PMC9962735, “Synthesis and Cytotoxic Activity of the Derivatives of N-(Purin-6-yl)aminopolymethylene Carboxylic Acids and Related Compounds” (Molecules, 2023)

Assays:
Vero E6 cells = system: Vero E6 cells; set-up: method as in doi:10.1007/s10593-021-02929-z; conditions: cited from earlier work
COLO201 cells = assay: Cell cycle analysis by flow cytometry (propidium iodide), COLO201; format: cell-based, human; conditions: for Cell proliferation index (%) / Number of cells (%) in cell cycle phase G0/G1 / Number of cells (%) in cell cycle phase G2M / Number of cells (%) in cell cycle phase S: 24 h, M ± SD (n = 3)
Experimental: To study the potential cytostatic effect of compound 1d, we chose the method of cell cycle analysis using flow cytometry by DNA staining with propidium iodide.
To analyze possible effects on the cell cycle, we tested three concentrations of compound 1d, which were close to CC50 calculated on the basis of viability assessment data (MTT assay).
Cell cycle analysis was performed by flow cytometry by staining DNA with propidium iodide (PI). For this, cells were seeded into 6-well plates: 2 × 10^5 COLO201 cells per well and 1.2 × 10^5 MDA-MB-231 cells per well. […] The final concentration of DMSO in the culture medium was 0.1%; an equivalent volume was added to the control cells. The plates were incubated for 24 h in a CO2 incubator. Then, cells were detached from the plastic surface using TrypLE, washed with PBS, and fixed with 70% ethanol. Next, the cells were incubated for 1 h in the dark at 4 °C, then sedimented by centrifugation at 184× g for 10 min, and washed twice with PBS. PBS (0.3 mL) containing 0.1% Triton X-100, 1 µg/mL PI, and 0.2 mg/mL RNAse A was added to the pellet, incubated for 30 min at room temperature in the dark, and analyzed on a CytoFlex flow cytometer (Beckman Coulter, Brea, CA, USA).
The cell population in the test sample was found and gated on forward versus side scatter (FSC-A vs. SSC-A). Next, doublets were discriminated and removed via PI signal height versus PI signal area (PI-H vs. PI-A). For cell cycle phases analysis, PI-A was plotted against number of events (number of cells) (PI-A vs. Count).
The flow cytometry data were processed using the Kaluza Analysis 2.1 software (Beckman Coulter, Brea, CA, USA). Percentages of cell populations distributed in the various phases of the cell cycle (sub-G1, G0/G1, S, and G2M) were calculated. The result was considered significant if the coefficient of variation (CV) was less than 6.

## CC1COc2c(ccc(F)c2F)N1C(=O)CCCCCCCCCCNc1ncnc2[nH]cnc12 (stereo not drawn) [Compound 1d]
Vero E6 cells
  concentration which caused the death of 50% Vero E6 cells: less than 30 µM
COLO201 cells; COLO201, 0.9×10–6 M
  Cell proliferation index (%): 37.05%
  Number of cells (%) in cell cycle phase G0/G1: 62.95%
  Number of cells (%) in cell cycle phase G2M: 15.70%
  Number of cells (%) in cell cycle phase S: 21.35%
COLO201 cells; COLO201, 1×10–6 M
  Cell proliferation index (%): 36.78±0.29%
  Number of cells (%) in cell cycle phase G0/G1: 63.21%
  Number of cells (%) in cell cycle phase G2M: 15.41±0.74%
  Number of cells (%) in cell cycle phase S: 21.38%
COLO201 cells; COLO201, 2×10–6 M
  Cell proliferation index (%): 35.35%
  Number of cells (%) in cell cycle phase G0/G1: 64.60%
  Number of cells (%) in cell cycle phase G2M: 16.84%
  Number of cells (%) in cell cycle phase S: 18.51%
COLO201 cells; COLO201, concentrations close to CC50, 24 h
  cell cycle arrest phase: cell cycle arrest occurred in the G2/M phase
COLO201 cells; COLO201, concentrations close to CC50, 24 h, range over the concentrations
  cell proliferation index: 35–37%
